# Where two headings read alike, the source gives them in different places.
# Tests used:
# cancer cell lines = assay: Cancer cell proliferation activity (CellTiterGlo, 72 h); format: cell-based; details: for IC50: 72 h, read-out: IC50
# In short: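 Readout is CellTiterGlo luminescence after 72 h compound exposure (0.1% DMSO final), started one day post-seeding, at 37 °C.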
# [1] = target: human cytidine deaminase (CDA) (Homo sapiens, UniProt P32320); assay: Metabolism by human cytidine deaminase (CDA), substrate absorbance at 290 nm; details: 12 nM CDA, 50 and 200 uM substrate, 37° C., pH 7.5; figure legends FIG. 4-9
# Sequence of human cytidine deaminase (CDA) (P32320 whole entry): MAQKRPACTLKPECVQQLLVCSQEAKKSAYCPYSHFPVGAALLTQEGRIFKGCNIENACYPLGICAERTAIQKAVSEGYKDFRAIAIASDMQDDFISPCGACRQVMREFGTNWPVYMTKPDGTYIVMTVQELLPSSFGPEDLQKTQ
smiles,measurement,setting,value
"C[C@]1(CO)O[C@@H](n2cc(F)c(N)nc2=O)C[C@@H]1O [Cpd. No. 4, 4-amino-5-fluoro-1-((2R,4S,5R)-4-hydroxy-5-(hydroxymethyl)-5-methyltetrahydrofuran-2-yl)pyrimidin-2(1H)-one]",IC50,cancer cell lines; 5637 cell line (bladder),30 nM
same,IC50,cancer cell lines; CLS439 cell line (bladder),17600 nM
same,IC50,cancer cell lines; HS729 cell line (muscle),1410 nM
same,IC50,cancer cell lines; JAR cell line (placenta),> 50000 nM
same,IC50,"cancer cell lines; U20S cell line, bone",> 50000 nM
same,IC50,"cancer cell lines; Homo sapiens, 22Rv1, 72 h, 22RV1 cell line (prostate)",400 nM
same,IC50,"cancer cell lines; Homo sapiens, 786-0, 72 h, 786O cell line (kidney)",> 50000 nM
same,IC50,"cancer cell lines; Homo sapiens, A204, 72 h, A204 cell line (muscle)",140 nM
same,IC50,"cancer cell lines; Homo sapiens, A549, 72 h, A549 cell line, lung",240 nM
same,IC50,"cancer cell lines; Homo sapiens, A673, 72 h, A673 cell line (bone)",510 nM
same,IC50,"cancer cell lines; Homo sapiens, A2780, 72 h, A2780 cell line (ovary)",680 nM
same,IC50,"cancer cell lines; Homo sapiens, A-375, 72 h, A375 cell line (skin)",730 nM
same,IC50,"cancer cell lines; Homo sapiens, A-431, 72 h, A431 cell line (skin)",40 nM
same,IC50,"cancer cell lines; Homo sapiens, ACHN, ACHN cell line (kidney)",50 nM
same,IC50,"cancer cell lines; Homo sapiens, ASPC1, 72 h, ASPC1 cell line (pancreas)",10 nM
same,IC50,"cancer cell lines; Homo sapiens, BT-20, 72 h, BT20 cell line (breast)",> 50000 nM
same,IC50,"cancer cell lines; Homo sapiens, BXPC-3, 72 h, BXPC3 cell line (pancreas)",10 nM
same,IC50,"cancer cell lines; Homo sapiens, C-33-A, C33A cell line, endometrial",130 nM
same,IC50,"cancer cell lines; Homo sapiens, CAKI-1, 72 h, CAKI1 cell line (kidney)",400 nM
same,IC50,"cancer cell lines; Homo sapiens, COLO 205, 72 h, COLO205 cell line (colon)",60 nM
same,IC50,"cancer cell lines; Homo sapiens, COLO-678, 72 h, COLO678 cell line (colon)",> 50000 nM
same,IC50,"cancer cell lines; Homo sapiens, Ca-Ski, CASKI cell line, endometrial",6170 nM
same,IC50,"cancer cell lines; Homo sapiens, Caco-2, 72 h, CACO2 cell line (colon)",> 50000 nM
same,IC50,"cancer cell lines; Homo sapiens, Calu-6, 72 h, CALU6 cell line (lung)",250 nM
same,IC50,"cancer cell lines; Homo sapiens, DLD-1, 72 h, DLD1 cell line (colon)",3660 nM
same,IC50,"cancer cell lines; Homo sapiens, DU-145, 72 h, DU145 cell line (prostate)",1340 nM
same,IC50,"cancer cell lines; Homo sapiens, EFO-21, 72 h, EFO21 cell line (ovary)",3620 nM
same,IC50,"cancer cell lines; Homo sapiens, EJ-28, 72 h, EJ28 cell line (bladder)",190 nM
same,IC50,"cancer cell lines; Homo sapiens, Granta-519, 72 h, GRANTA-519 cell line (hematological)",30 nM
same,IC50,"cancer cell lines; Homo sapiens, HCT-15, 72 h, HCT15 cell line (colon)",1580 nM
same,IC50,"cancer cell lines; Homo sapiens, HCT-116, 72 h, HCT116 cell line (colon)",1180 nM
same,IC50,"cancer cell lines; Homo sapiens, HEK293, 72 h, HEK293 cell line (kidney)",> 50000 nM
same,IC50,"cancer cell lines; Homo sapiens, HL-60, 72 h, HL-60 cell line (hematological)",810 nM
same,IC50,"cancer cell lines; Homo sapiens, HT-29, 72 h, HT29 cell line (colon)",160 nM
same,IC50,"cancer cell lines; Homo sapiens, HT-1080, 72 h, HT1080 cell line (connective tissue)",190 nM
same,IC50,"cancer cell lines; Homo sapiens, HeLa, HELA cell line, endometrial",> 50000 nM
same,IC50,"cancer cell lines; Homo sapiens, HepG2, 72 h, HEPG2 cell line (liver)",540 nM
same,IC50,"cancer cell lines; Homo sapiens, Hs-578T, HS578T cell line, breast",> 50000 nM
same,IC50,"cancer cell lines; Homo sapiens, IGROV-1, 72 h, IGROV1 cell line (ovary)",1650 nM
same,IC50,"cancer cell lines; Homo sapiens, IMR-90, 72 h, IMR90 cell line, lung",> 50000 nM
same,IC50,"cancer cell lines; Homo sapiens, J82, 72 h, J82 cell line (bladder)",1080 nM
same,IC50,"cancer cell lines; Homo sapiens, JEG-3, 72 h, JEG3 cell line (placenta)",100 nM
same,IC50,"cancer cell lines; Homo sapiens, JIMT-1, 72 h, JIMT1 cell line (breast)",890 nM
same,IC50,"cancer cell lines; Homo sapiens, K562, 72 h, K-562 cell line (hematological)",> 50000 nM
same,IC50,"cancer cell lines; Homo sapiens, Kasumi 1, 72 h, KASUMI-1 cell line (hematological)",400 nM
same,IC50,"cancer cell lines; Homo sapiens, L-363, 72 h, L-363 cell line (hematological)",> 50000 nM
same,IC50,"cancer cell lines; Homo sapiens, LoVo, LOVO cell line (colon)",30 nM
same,IC50,"cancer cell lines; Homo sapiens, MCF7, 72 h, MCF7 cell line (breast)",1760 nM
same,IC50,"cancer cell lines; Homo sapiens, MDA-MB-231, 72 h, MDAMB231 cell line (breast)",370 nM
same,IC50,"cancer cell lines; Homo sapiens, MDA-MB-435, 72 h, MDAMB435 cell line (skin)",2520 nM
same,IC50,"cancer cell lines; Homo sapiens, MDA-MB-436, 72 h, MDAMB436 cell line (breast)",140 nM
same,IC50,"cancer cell lines; Homo sapiens, MDA-MB-468, 72 h, MDAMB468 cell line (breast)",770 nM
same,IC50,"cancer cell lines; Homo sapiens, MG-63, 72 h, MG63 cell line (bone)",680 nM
same,IC50,"cancer cell lines; Homo sapiens, MHH-ES-1, 72 h, MHHES1 cell line (bone)",1930 nM
same,IC50,"cancer cell lines; Homo sapiens, MIA PaCa-2, 72 h, MIAPACA2 cell line (pancreas)",> 50000 nM
same,IC50,"cancer cell lines; Homo sapiens, MINO, MINO cell line (hematological)",10 nM
same,IC50,"cancer cell lines; Homo sapiens, MV4-11, 72 h, MV4-11 cell line (hematological)",140 nM
same,IC50,"cancer cell lines; Homo sapiens, NCI-H23, 72 h, NCI-H23 cell line (lung)",980 nM
same,IC50,"cancer cell lines; Homo sapiens, NCI-H82, 72 h, NCIH82 cell line (lung)",390 nM
same,IC50,"cancer cell lines; Homo sapiens, NCI-H292, 72 h, NCIH292 cell line (lung)",> 50000 nM
same,IC50,"cancer cell lines; Homo sapiens, NCI-H460, 72 h, NCIH460 cell line (lung)",200 nM
same,IC50,"cancer cell lines; Homo sapiens, OVCAR-3, 72 h, OVCAR3 cell line (ovary)",3090 nM
same,IC50,"cancer cell lines; Homo sapiens, OVCAR-4, 72 h, OVCAR4 cell line (ovary)",> 50000 nM
same,IC50,"cancer cell lines; Homo sapiens, PANC-1, 72 h, PANC1 cell line (pancreas)",1620 nM
same,IC50,"cancer cell lines; Homo sapiens, PC-3, 72 h, PC3 cell line (prostate)",2600 nM
same,IC50,"cancer cell lines; Homo sapiens, PLC-PRF-5, 72 h, PLCPRF5 cell line (liver)",> 50000 nM
same,IC50,"cancer cell lines; Homo sapiens, Panc1005, 72 h, PANC1005 cell line (pancreas)",> 50000 nM
same,IC50,"cancer cell lines; Homo sapiens, RD, RD cell line (muscle)",420 nM
same,IC50,"cancer cell lines; Homo sapiens, Ramos, RAMOS cell line (hematological)",160 nM
same,IC50,"cancer cell lines; Homo sapiens, SAOS-2, 72 h, SAOS2 cell line (bone)",90 nM
same,IC50,"cancer cell lines; Homo sapiens, SF-268, 72 h, SF268 cell line (brain)",220 nM
same,IC50,"cancer cell lines; Homo sapiens, SF-295, 72 h, SF295 cell line (brain)",3900 nM
same,IC50,"cancer cell lines; Homo sapiens, SK-BR-3, 72 h, SKBR3 cell line (breast)",30 nM
same,IC50,"cancer cell lines; Homo sapiens, SK-HEP1, 72 h, SKHEP1 cell line (liver)",770 nM
same,IC50,"cancer cell lines; Homo sapiens, SK-LMS-1, 72 h, SKLMS1 cell line (uterus)",1150 nM
same,IC50,"cancer cell lines; Homo sapiens, SK-MEL-5, 72 h, SKMEL5 cell line, skin",> 50000 nM
same,IC50,"cancer cell lines; Homo sapiens, SK-MEL-28, 72 h, SKMEL28 cell line (skin)",2900 nM
same,IC50,"cancer cell lines; Homo sapiens, SK-N-AS, SKNAS cell line (brain)",> 50000 nM
same,IC50,"cancer cell lines; Homo sapiens, SK-N-SH, SKNSH cell line (brain)",> 50000 nM
same,IC50,"cancer cell lines; Homo sapiens, SK-OV-3, 72 h, SKOV3 cell line (ovary)",410 nM
same,IC50,"cancer cell lines; Homo sapiens, SNB-75, 72 h, SNB75 cell line (brain)",2820 nM
same,IC50,"cancer cell lines; Homo sapiens, SU-DHL10, 72 h, SU-DHL-10 cell line (hematological)",330 nM
same,IC50,"cancer cell lines; Homo sapiens, SU-DHL-6, 72 h, SU-DHL-6 cell line (hematological)",450 nM
same,IC50,"cancer cell lines; Homo sapiens, SW-620, 72 h, SW620 cell line (colon)",240 nM
same,IC50,"cancer cell lines; Homo sapiens, T-24, 72 h, T24 cell line (bladder)",400 nM
same,IC50,"cancer cell lines; Homo sapiens, TE-671, 72 h, TE671 cell line (muscle)",170 nM
same,IC50,"cancer cell lines; Homo sapiens, THP-1, 72 h, THP-1 cell line (hematological)",2140 nM
same,IC50,"cancer cell lines; Homo sapiens, U-87 MG, U87MG cell line (brain)",1870 nM
same,IC50,"cancer cell lines; Homo sapiens, UMUC3, 72 h, UMUC3 cell line (bladder)",1340 nM
same,IC50,"cancer cell lines; Homo sapiens, UO-31, 72 h, UO31 cell line (kidney)",> 50000 nM
same,IC50,"cancer cell lines; Homo sapiens, WSU-NHL, WSU-NHL cell line (hematological)",380 nM
same,IC50,"cancer cell lines; MT-3, 72 h, MT3 cell line (breast)",60 nM
same,IC50,"cancer cell lines; NCI-H358M, NCIH358M cell line (lung)",70 nM
same,IC50,"cancer cell lines; PBMC, PBMC (hematological)",700 nM
same,IC50,"cancer cell lines; RD-ES, RDES cell line (bone)",6010 nM
same,cytotoxicity against a panel of cell lines (waterfall plot),"cancer cell lines; panel of cancer and non-cancer cell lines, figure legends FIG. 1-3",selectively cytotoxic in cancer cell lines with high DDR activity
same,metabolism (deamination) by human CDA (line graph),[1],more stable than cytidine and gemcitabine

# Reference: patent US20250215039A1, “NUCLEOSIDES FOR TREATING CANCER” (PRIMEFOUR THERAPEUTICS, INC., priority 2022, published 2025)
